Assay results published in PubChem BioAssay (NCI).
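Exposure lasted 48 hours, with cells grown in 96-well plates and compounds tested at five concentrations. GI50: concentration for 50% inhibition of growth. At the TGI there is no net growth.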

tested on: HOP-18 NSCLC; assay: NCI-60 cell line screen, 48 h

Row | SMILES | TGI [µM]
1 | O=C1NC2OC(C(O)CO)C(O)C2O1 (configuration not stated) | > 100

tested on: HOP-62 NSCLC; assay: NCI-60 cell line screen, 48 h

Row | SMILES | TGI [µM] | GI50 [mM]
2 | O=c1c2cc(Br)cc(Br)c2nc(CCCl)n1CCO | > 100 | 
3 | CC(=O)[C@@]1(O)CC[C@H]2[C@@H]3C[C@H](C)C4=CC(=O)C=C[C@]4(C)[C@@]3(F)[C@@H](O)C[C@@]21C | > 100 | 
4 | Nc1ccn(C2CCC(CO)O2)c(=O)n1 (configuration not stated) | > 1000 | > 1
5 | O=C1CCCC[C@H]1[C@H]1CCC[C@@H]([C@H]2CCCCC2=O)C1=O | > 100 | 
6 | C/C(CC(=O)NCCc1ccccc1)=N\NC(=O)C[n+]1ccccc1 | > 100 | 

tested on: HOP-92 NSCLC; assay: NCI-60 cell line screen, 48 h

Row | SMILES | TGI [µM] | GI50 [mM]
7 | O=c1c2cc(Br)cc(Br)c2nc(CCCl)n1CCO | > 100 | 
8 | CC(=O)[C@@]1(O)CC[C@H]2[C@@H]3C[C@H](C)C4=CC(=O)C=C[C@]4(C)[C@@]3(F)[C@@H](O)C[C@@]21C | > 100 | 
9 | Nc1ccn(C2CCC(CO)O2)c(=O)n1 (configuration not stated) | > 1000 | > 1
10 | O=C1CCCC[C@H]1[C@H]1CCC[C@@H]([C@H]2CCCCC2=O)C1=O | > 100 | 
11 | O=C1NC2OC(C(O)CO)C(O)C2O1 (configuration not stated) | > 100 | 
12 | C/C(CC(=O)NCCc1ccccc1)=N\NC(=O)C[n+]1ccccc1 | > 100 | 

tested on: HS 578T breast; assay: NCI-60 cell line screen, 48 h

Row | SMILES | TGI [µM]
13 | CC(=O)[C@@]1(O)CC[C@H]2[C@@H]3C[C@H](C)C4=CC(=O)C=C[C@]4(C)[C@@]3(F)[C@@H](O)C[C@@]21C | > 100
14 | Nc1ccn(C2CCC(CO)O2)c(=O)n1 (configuration not stated) | > 1000

tested on: HT29 colon; assay: NCI-60 cell line screen, 48 h

Row | SMILES | TGI [µM] | GI50 [mM]
15 | O=c1c2cc(Br)cc(Br)c2nc(CCCl)n1CCO | > 100 | 
16 | CC(=O)[C@@]1(O)CC[C@H]2[C@@H]3C[C@H](C)C4=CC(=O)C=C[C@]4(C)[C@@]3(F)[C@@H](O)C[C@@]21C | > 100 | 
17 | Nc1ccn(C2CCC(CO)O2)c(=O)n1 (configuration not stated) | > 1000 | > 1
18 | O=C1CCCC[C@H]1[C@H]1CCC[C@@H]([C@H]2CCCCC2=O)C1=O | > 100 | 
19 | O=C1NC2OC(C(O)CO)C(O)C2O1 (configuration not stated) | > 100 | 
20 | C/C(CC(=O)NCCc1ccccc1)=N\NC(=O)C[n+]1ccccc1 | > 100 | 

tested on: IGROV1 ovarian; assay: NCI-60 cell line screen, 48 h

Row | SMILES | TGI [µM] | GI50 [mM]
21 | O=c1c2cc(Br)cc(Br)c2nc(CCCl)n1CCO | > 100 | 
22 | CC(=O)[C@@]1(O)CC[C@H]2[C@@H]3C[C@H](C)C4=CC(=O)C=C[C@]4(C)[C@@]3(F)[C@@H](O)C[C@@]21C | > 100 | 
23 | Nc1ccn(C2CCC(CO)O2)c(=O)n1 (configuration not stated) | > 1000 | > 1
24 | O=C1CCCC[C@H]1[C@H]1CCC[C@@H]([C@H]2CCCCC2=O)C1=O | > 100 | 
25 | O=C1NC2OC(C(O)CO)C(O)C2O1 (configuration not stated) | > 100 | 
26 | C/C(CC(=O)NCCc1ccccc1)=N\NC(=O)C[n+]1ccccc1 | > 100 | 

tested on: K-562 leukemia; assay: NCI-60 cell line screen, 48 h

Row | SMILES | TGI [µM] | GI50 [mM]
27 | O=c1c2cc(Br)cc(Br)c2nc(CCCl)n1CCO | > 100 | 
28 | CC(=O)[C@@]1(O)CC[C@H]2[C@@H]3C[C@H](C)C4=CC(=O)C=C[C@]4(C)[C@@]3(F)[C@@H](O)C[C@@]21C | > 100 | 
29 | Nc1ccn(C2CCC(CO)O2)c(=O)n1 (configuration not stated) | > 1000 | > 1
30 | O=C1CCCC[C@H]1[C@H]1CCC[C@@H]([C@H]2CCCCC2=O)C1=O | > 100 | 
31 | O=C1NC2OC(C(O)CO)C(O)C2O1 (configuration not stated) | > 100 | 
32 | C/C(CC(=O)NCCc1ccccc1)=N\NC(=O)C[n+]1ccccc1 | > 100 | 

tested on: KM12 colon; assay: NCI-60 cell line screen, 48 h

Row | SMILES | TGI [µM] | GI50 [mM]
33 | O=c1c2cc(Br)cc(Br)c2nc(CCCl)n1CCO | > 100 | 
34 | CC(=O)[C@@]1(O)CC[C@H]2[C@@H]3C[C@H](C)C4=CC(=O)C=C[C@]4(C)[C@@]3(F)[C@@H](O)C[C@@]21C | > 100 | 
35 | Nc1ccn(C2CCC(CO)O2)c(=O)n1 (configuration not stated) | > 1000 | > 1
36 | O=C1CCCC[C@H]1[C@H]1CCC[C@@H]([C@H]2CCCCC2=O)C1=O | > 100 | 
37 | O=C1NC2OC(C(O)CO)C(O)C2O1 (configuration not stated) | > 100 | 
38 | C/C(CC(=O)NCCc1ccccc1)=N\NC(=O)C[n+]1ccccc1 | > 100 | 

tested on: KM20L2 colon; assay: NCI-60 cell line screen, 48 h

Row | SMILES | TGI [µM]
39 | O=c1c2cc(Br)cc(Br)c2nc(CCCl)n1CCO | > 100
40 | CC(=O)[C@@]1(O)CC[C@H]2[C@@H]3C[C@H](C)C4=CC(=O)C=C[C@]4(C)[C@@]3(F)[C@@H](O)C[C@@]21C | > 100
41 | O=C1CCCC[C@H]1[C@H]1CCC[C@@H]([C@H]2CCCCC2=O)C1=O | > 100
